The values below are quoted from earlier work in patent US9950112B2 (priority 2010, dated 2018).

For data set [1] the following is noted: morphine during early resuscitation following serious injuries; reduced from 76%.
The conditions of data set [2]: propofol concentration, human surgical patients, general anesthesia.

In the case of `CN1CC[C@]23c4c5ccc(O)c4O[C@H]2[C@@H](O)C=C[C@H]3[C@H]1C5` [morphine], the “incidence of post-traumatic stress disorder (PTSD)” value in data set [1] is listed as 61%. Regarding `CC(C)c1cccc(C(C)C)c1O` [propofol], in data set [2], the EC50 for awakening is 1.07 ± 0.13 µg/mL and the EC50 for orientation was 0.95 ± 0.19 µg/mL.
